Laboratory results taken from paper PMC4451509, “9-cis-13,14-Dihydroretinoic Acid Is an Endogenous Retinoid Acting as RXR Ligand in Mice” (PLoS Genetics, 2015).

Assays:
hRARα LBD = target: T1, hRARα LBD (Homo sapiens, UniProt P10276); test: non-denaturing ESI-MS
T1 construct: gene RARA
T1 sequence (P10276 153-421): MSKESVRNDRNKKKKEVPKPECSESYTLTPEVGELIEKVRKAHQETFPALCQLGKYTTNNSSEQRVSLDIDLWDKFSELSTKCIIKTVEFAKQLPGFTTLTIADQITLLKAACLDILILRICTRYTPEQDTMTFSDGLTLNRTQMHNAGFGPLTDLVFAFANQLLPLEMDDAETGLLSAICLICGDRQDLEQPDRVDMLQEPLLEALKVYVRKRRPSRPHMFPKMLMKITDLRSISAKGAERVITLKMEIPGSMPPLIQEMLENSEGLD

hRARβ LBD = target: T2, hRARβ LBD (Homo sapiens, UniProt P10826); test: non-denaturing ESI-MS; assay type: binding
T2 construct: gene RARB; LBD (169–414), N-terminal His-tag
T2 sequence (P10826 169-414): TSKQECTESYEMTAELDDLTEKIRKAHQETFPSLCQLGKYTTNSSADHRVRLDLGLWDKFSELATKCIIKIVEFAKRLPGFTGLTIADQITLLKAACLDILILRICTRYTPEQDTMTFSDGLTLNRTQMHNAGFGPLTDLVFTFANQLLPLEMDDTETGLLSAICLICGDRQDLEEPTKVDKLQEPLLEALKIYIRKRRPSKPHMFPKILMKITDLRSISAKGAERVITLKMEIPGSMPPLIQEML

Row | SMILES | non-denaturing ESI-MS (hRARα LBD) | non-denaturing ESI-MS (hRARβ LBD)
1 | CC1=C(/C=C/C(C)=C\C=C\C(C)=C\C(=O)O)C(C)(C)CCC1 [9CRA, 9-cis-retinoic acid] | percent of bound/free protein for hRAR isotypes for R- and S-9CDHRA enantiomers and 9CRA | 
2 | CC1=C(/C=C/C(C)=C\C=C\[C@H](C)CC(=O)O)C(C)(C)CCC1 [R-9CDHRA] | revealed that 9CDHRA (R and S) bind to all RAR LBD isotypes | revealed that 9CDHRA (R and S) bind to all RAR LBD isotypes
3 | CC1=C(/C=C/C(C)=C\C=C\[C@@H](C)CC(=O)O)C(C)(C)CCC1 [S-9CDHRA] | revealed that 9CDHRA (R and S) bind to all RAR LBD isotypes | revealed that 9CDHRA (R and S) bind to all RAR LBD isotypes
